{
  "source": "patent US12630803B2",
  "about": "“Method of increasing proliferation of pancreatic beta cells, treatment method, and composition” (ICAHN SCHOOL OF MEDICINE AT MOUNT SINAI, priority 2018, dated 2026)",
  "key": {"human beta cells [1]": {"tested_on": "human beta cells", "assay": "Ki67-insulin immunolabeling of dispersed human islet cells (beta cell proliferation)", "conditions": "for synergy of GLP1R agonist with harmine on beta cell proliferation: in combination with harmine, FIG. 1G; for actual Ki67% values: DYRK1A inhibitor alone, dispersed human islets, 96 hours, FIG. 1F; for synergy of DYRK1A inhibitor with GLP1 on beta cell proliferation: in combination with GLP1, FIGS. 1F, 4; for ability to replace or mimic GLP1 in harmine-GLP1 proliferation: agent administered together with harmine, FIGS. 5A-5C, 5E, 5F; for proliferation, agent alone at low dose: harmine 1 μM alone or GLP1 alone, FIG. 3E", "quoted_text": "(§3) Human Islets: Human islets from 81 normal donors were obtained through the NIH-supported Integrated Islet Distribution Program (IIDP), the Alberta Diabetes Institute Islet Core at the University of Alberta, and the Clinical Islet Laboratory, University of Alberta Hospital. Islets were harvested from pancreata from deceased organ donors without any identifying information with informed consent and IRB approval at the islet-isolating centers. […] In addition, islets were obtained from 11 donors with Type 2 diabetes. […] Three were known to be on diabetes medications (metformin n=3, DPP4 inhibitor n=1). […] Whole islets were pelleted by centrifugation at 200×G and washed twice in PBS. Islets were then incubated in Accutase for 15-17 minutes at 37° C. and completely dispersed to single cells by pipette trituration. Single islet cells were pelleted by centrifugation at 700×G and re-suspended in islet culture medium.\n(§4) Compound Treatments: Dispersed islets were plated on poly-D-lysine-laminin-coated glass chamber slides or coverslips. Cells derived from 20-30 IEQ dispersed cells were seeded per well, and allowed to recover for 24 hr prior to compound treatment. Cells were treated for 96 hours prior to Ki67 staining, BrdU staining or TUNEL labeling.\nAntibodies were diluted in blocking buffer (5% normal goat serum (NGS), 1% bovine serum albumin (BSA), 0.5% Triton, in PBS). […] BrdU (Cell Proliferation Labelling Reagent. Amersham GE Healthcare. GE: RPN201) was added to each treatment at a 1:100 dilution, 18 hours prior to fixation. Antigen retrieval for BrdU immunostaining was performed following fixation using 1N HCl at 37° C. for 30 minutes before primary antibody incubation."}, "T2D beta cells": {"tested_on": "T2D beta cells", "conditions": "FIGS. 9D-9E", "quoted_text": "as §3, §4\nAntibodies were diluted in blocking buffer (5% normal goat serum (NGS), 1% bovine serum albumin (BSA), 0.5% Triton, in PBS). […]"}, "human beta cells [2]": {"tested_on": "human beta cells", "assay": "TUNEL assay of beta cell death", "format": "cell-based", "conditions": "96 hours, FIGS. 10C-10D", "text": "(§1) Primary and secondary antisera used are listed below."}, "ductal (CK19+) cells": {"tested_on": "ductal (CK19+) cells", "assay": "BrdU labeling in ductal (CK19+) cells of dispersed human islets", "format": "cell-based", "text": "as §1"}, "alpha (GCG+) cells": {"tested_on": "alpha (GCG+) cells", "assay": "BrdU labeling in alpha (GCG+) cells of dispersed human islets", "format": "cell-based", "text": "as §1"}, "[3]": {"tested_on": "markers of beta cell differentiation", "assay": "qPCR of differentiation markers in islets from donors with T2D", "format": "cell-based, human", "conditions": "FIG. 9A", "text": "Purity ranged from 55% to 85%.\n(§2) Primers are shown below in Tables 5 and 6."}, "beta (INS+) cells": {"tested_on": "beta (INS+) cells", "assay": "BrdU labeling in beta (INS+) cells of dispersed human islets", "format": "cell-based", "text": "as §1"}, "PDX1, MAFA, and NKX6.1": {"tested_on": "PDX1, MAFA, and NKX6.1", "conditions": "normal donors, FIG. 8B", "experimental": "Antibodies were diluted in blocking buffer (5% normal goat serum (NGS), 1% bovine serum albumin (BSA), 0.5% Triton, in PBS). Primary and secondary antisera used are listed below. BrdU (Cell Proliferation Labelling Reagent. Amersham GE Healthcare. GE: RPN201) was added to each treatment at a 1:100 dilution, 18 hours prior to fixation. Antigen retrieval for BrdU immunostaining was performed following fixation using 1N HCl at 37° C. for 30 minutes before primary antibody incubation. Cells were incubated with primary and secondary antibodies according to Table 4 below before counterstained with DAPI."}, "delta (SST+) cells": {"tested_on": "delta (SST+) cells", "assay": "BrdU labeling in delta (SST+) cells of dispersed human islets", "format": "cell-based", "text": "as §1"}, "cell cycle molecules": {"tested_on": "cell cycle molecules", "assay": "qPCR of cell cycle activators and inhibitors in human islets", "format": "cell-based", "conditions": "GLP1 added to harmine, vs harmine alone, 72 hours", "text": "as §2"}, "[4]": {"conditions": "GLP1 added to harmine, vs harmine alone"}},
  "note": "Entries after “also recorded” stand apart in the source; their conditions may differ. Ends that are not written are not given here.",
  "data": [
    {"molecule": "exendin-4: GLP1R agonist (11940, Cayman)", "values": [
      {"measurement": "synergy of GLP1R agonist with harmine on beta cell proliferation", "setting": "human beta cells [1]", "value": "synergy was also apparent"}
    ]},
    {"molecule": "CC(C)Oc1ccc(F)c(-c2cnc(N)c(C(=O)Nc3cnccc3N3CCC[C@@H](C(=O)O)C3)n2)c1", "note": "[GNF4877]", "values": [
      {"measurement": "actual Ki67% values", "setting": "human beta cells [1]", "value": 2.9, "unit": "%"},
      {"measurement": "synergy of DYRK1A inhibitor with GLP1 on beta cell proliferation", "setting": "human beta cells [1]", "value": "synergistic"}
    ]},
    {"molecule": "OCCN(CCO)c1nc(N2CCCCC2)c2nc(N(CCO)CCO)nc(N3CCCCC3)c2n1", "note": "[dipyridamole]", "values": [
      {"measurement": "ability to replace or mimic GLP1 in harmine-GLP1 proliferation", "setting": "human beta cells [1]", "value": "mimicked; also recorded: can replace GLP1"},
      {"measurement": "effect on human beta cell proliferation, agent administered alone", "setting": "human beta cells [1]", "value": "no effect on proliferation"}
    ]},
    {"molecule": "COc1ccc2c(c1)[nH]c1c(C)nccc12", "note": "[harmine]", "values": [
      {"measurement": "beta cell proliferation (Ki67 immunolabeling)", "setting": "T2D beta cells", "value": "activated beta cell proliferation in T2D beta cells"},
      {"measurement": "actual Ki67% values", "setting": "human beta cells [1]", "value": 2.1, "unit": "%"},
      {"measurement": "proliferation, agent alone at low dose", "setting": "human beta cells [1]", "value": "little or no proliferation"},
      {"measurement": "human beta cell proliferation (Ki67 in insulin-positive cells)", "setting": "human beta cells [1]; harmine alone", "value": "~2", "unit": "%"},
      {"measurement": "actual Ki67% value", "setting": "human beta cells [1]; harmine alone, experiments of FIG. 1G", "value": 2.2, "unit": "%"},
      {"measurement": "markers of beta cell death (TUNEL)", "setting": "human beta cells [2]", "value": "Neither harmine nor the harmine-GLP1 combination treatment induced markers of beta cell death"},
      {"measurement": "proliferation (BrdU) in ductal cells", "setting": "ductal (CK19+) cells; harmine alone", "value": "activates proliferation"},
      {"measurement": "proliferation (BrdU) in alpha cells", "setting": "alpha (GCG+) cells; harmine alone", "value": "activates proliferation"},
      {"measurement": "expression of differentiation markers (qPCR)", "setting": "[3]", "value": "did not have adverse effects on differentiation"},
      {"measurement": "expression of differentiation markers (qPCR)", "setting": "[3]; listed as Harmine", "value": "increased the expression of PDX1, MAFB, NKX6.1, GLUT2, GLP1R, and PCSK1"},
      {"measurement": "proliferation (BrdU) in beta cells", "setting": "beta (INS+) cells; harmine alone", "value": "activates proliferation"},
      {"measurement": "PDX1, MAFA and NKX6.1 proteins in beta cells", "setting": "PDX1, MAFA, and NKX6.1", "value": "increases in beta cell nuclei"},
      {"measurement": "proliferation (BrdU) in delta cells", "setting": "delta (SST+) cells; harmine alone", "value": "activates proliferation"}
    ]},
    {"molecule": "lixisenatide: GLP1R agonist", "values": [
      {"measurement": "synergy of GLP1R agonist with harmine on beta cell proliferation", "setting": "human beta cells [1]", "value": "synergy was also apparent"}
    ]},
    {"molecule": "O=C1NC(Nc2ccccc2)=N/C1=C\\c1ccc2c(c1)OCO2", "note": "[leucettine]", "values": [
      {"measurement": "actual Ki67% values", "setting": "human beta cells [1]", "value": 2.8, "unit": "%"},
      {"measurement": "synergy of DYRK1A inhibitor with GLP1 on beta cell proliferation", "setting": "human beta cells [1]", "value": "synergistic"}
    ]},
    {"molecule": "GLP1(7-36)amide (HAEGTFTSDVSSYLEGQAAKEFIAWLVKGR-NH2; UniProt P01275 98-127, looked up) [GLP1R agonist (H-6795, Bachem)]", "values": [
      {"measurement": "change to cell cycle activators or inhibitors (qPCR)", "setting": "cell cycle molecules", "value": "no incremental change to cell cycle activators or inhibitors"},
      {"measurement": "effect on human beta cell proliferation, agent administered alone", "setting": "human beta cells [1]", "value": "negligible effects"},
      {"measurement": "proliferation, agent alone at low dose", "setting": "human beta cells [1]", "value": "little or no proliferation"},
      {"measurement": "synergy of GLP1R agonist with harmine on beta cell proliferation", "setting": "human beta cells [1]", "value": "synergy was also apparent"},
      {"measurement": "proliferation (BrdU) in ductal cells", "setting": "ductal (CK19+) cells; [4]", "value": "further increased proliferation; also recorded: accentuates"},
      {"measurement": "proliferation (BrdU) in alpha cells", "setting": "alpha (GCG+) cells; [4]", "value": "no additional effect"},
      {"measurement": "proliferation (BrdU) in beta cells", "setting": "beta (INS+) cells; [4]", "value": "further increased proliferation; also recorded: accentuates"},
      {"measurement": "proliferation (BrdU) in delta cells", "setting": "delta (SST+) cells; [4]", "value": "no additional effect"}
    ]},
    {"molecule": "CCN1/C(=C/C(C)=O)Sc2ccc(O)cc21", "note": "[INDY]", "values": [
      {"measurement": "actual Ki67% values", "setting": "human beta cells [1]", "value": 1.7, "unit": "%"},
      {"measurement": "synergy of DYRK1A inhibitor with GLP1 on beta cell proliferation", "setting": "human beta cells [1]", "value": "synergistic"}
    ]},
    {"molecule": "CC(C)Cn1c(=O)n(C)c(=O)c2[nH]cnc21", "note": "[IBMX, 3-Isobutyl-1-methylxanthine]", "values": [
      {"measurement": "ability to replace or mimic GLP1 in harmine-GLP1 proliferation", "setting": "human beta cells [1]", "value": "mimicked; also recorded: can replace GLP1"},
      {"measurement": "effect on human beta cell proliferation, agent administered alone", "setting": "human beta cells [1]", "value": "no effect on proliferation"}
    ]},
    {"molecule": "Nc1ncnc2c1c(I)cn2[C@@H]1O[C@H](CO)[C@@H](O)[C@H]1O", "note": "[5-IT, 5-iodotubercidin]", "values": [
      {"measurement": "actual Ki67% values", "setting": "human beta cells [1]", "value": 2.6, "unit": "%"},
      {"measurement": "synergy of DYRK1A inhibitor with GLP1 on beta cell proliferation", "setting": "human beta cells [1]", "value": "synergistic"}
    ]},
    {"molecule": "O=S(=O)(NCCNC/C=C/c1ccc(Br)cc1)c1cccc2cnccc12", "note": "[H89]", "values": [
      {"measurement": "effect on human beta cell proliferation, agent administered alone", "setting": "human beta cells [1]", "value": "no effect on its own"}
    ]},
    {"molecule": "CCCC(=O)Nc1ncnc2c1ncn2[C@@H]1O[C@@H]2COP(=O)(O)O[C@H]2[C@H]1OC(=O)CCC", "note": "[di-butyryl cAMP, dibutyryl cAMP]", "values": [
      {"measurement": "ability to replace or mimic GLP1 in harmine-GLP1 proliferation", "setting": "human beta cells [1]", "value": "can replace GLP1"},
      {"measurement": "ability to replace or mimic GLP1 in harmine-GLP1 proliferation", "setting": "human beta cells [1]; listed as dibutyryl-cyclicAMP", "value": "mimicked"},
      {"measurement": "effect on human beta cell proliferation, agent administered alone", "setting": "human beta cells [1]", "value": "no effect on proliferation"}
    ]}
  ]
}
